In the CheMixHub viscosity set:

Test: xn = mol fraction of the nth substance listed

BrC(Br)Br + Brc1ccccc1
viscosity [mPa·s]
Details	x1 = 0.1693	x1 = 0.1837	x1 = 0.3354	x1 = 0.3369	x1 = 0.5411	x1 = 0.5417	x1 = 0.6863	x1 = 0.6869	x1 = 0.8606	x1 = 0.871
298 K, 101.3 kPa	–	1.207	–	1.333	–	1.51	–	1.627	1.769	–
318 K, 101.33 kPa	0.9504	–	1.051	–	1.179	–	1.272	–	–	1.396

CCC(C)(C)OC + C1CCCC1
viscosity [mPa·s], 100 kPa
Details	x1 = 0.0512	x1 = 0.1014	x1 = 0.2107	x1 = 0.3001	x1 = 0.4033	x1 = 0.5001	x1 = 0.6006	x1 = 0.7352	x1 = 0.8928	x1 = 0.9498
293.15 K	0.429	0.429	0.431	0.432	0.434	0.435	0.436	0.437	0.439	0.439
303.15 K	0.386	0.388	0.392	0.395	0.398	0.401	0.404	0.408	0.413	0.414
313.15 K	0.349	0.35	0.353	0.355	0.357	0.359	0.361	0.364	0.367	0.368

BrC(Br)Br + C1CCCCC1
viscosity [mPa·s]
Details	x1 = 0.1747	x1 = 0.1851	x1 = 0.3427	x1 = 0.3428	x1 = 0.5476	x1 = 0.5486	x1 = 0.6899	x1 = 0.6911	x1 = 0.8718	x1 = 0.8747
298 K, 101.3 kPa	–	0.959	–	1.071	–	1.258	1.409	–	1.67	–
318 K, 101.33 kPa	0.7236	–	0.82	–	0.9769	–	–	1.113	–	1.309

CCCCCCCCO + C1CCCCC1
Details	viscosity [mPa·s]
293.15 K, 100 kPa, x2 = 0.0821	7.85
293.15 K, 100 kPa, x2 = 0.1596	6.77
293.15 K, 100 kPa, x2 = 0.2413	5.78
293.15 K, 100 kPa, x2 = 0.3502	4.63
293.15 K, 100 kPa, x2 = 0.4402	3.78
293.15 K, 100 kPa, x2 = 0.5611	2.83
293.15 K, 100 kPa, x2 = 0.6512	2.26
293.15 K, 100 kPa, x2 = 0.7501	1.79
293.15 K, 100 kPa, x2 = 0.8503	1.38
293.15 K, 100 kPa, x2 = 0.9396	1.11
303.15 K, 100 kPa, x2 = 0.0821	5.56
303.15 K, 100 kPa, x2 = 0.1596	4.83
303.15 K, 100 kPa, x2 = 0.2413	4.15
303.15 K, 100 kPa, x2 = 0.3502	3.33
303.15 K, 100 kPa, x2 = 0.4402	2.73
303.15 K, 100 kPa, x2 = 0.5611	2.08
303.15 K, 100 kPa, x2 = 0.6512	1.72
303.15 K, 100 kPa, x2 = 0.7501	1.4
303.15 K, 100 kPa, x2 = 0.8503	1.12
303.15 K, 100 kPa, x2 = 0.9396	0.92
303.15 K, 101.33 kPa, x1 = 0.1206	1.057
303.15 K, 101.33 kPa, x1 = 0.221	1.301
303.15 K, 101.33 kPa, x1 = 0.2975	1.52
303.15 K, 101.33 kPa, x1 = 0.3517	1.697
303.15 K, 101.33 kPa, x1 = 0.4355	2.023
303.15 K, 101.33 kPa, x1 = 0.5414	2.518
303.15 K, 101.33 kPa, x1 = 0.608	2.869
303.15 K, 101.33 kPa, x1 = 0.755	3.829
303.15 K, 101.33 kPa, x1 = 0.8637	4.746
308 K, 101 kPa, x2 = 0.1494	4.134
308 K, 101 kPa, x2 = 0.2768	3.348
308 K, 101 kPa, x2 = 0.3962	2.659
308 K, 101 kPa, x2 = 0.5076	2.09
308 K, 101 kPa, x2 = 0.6146	1.64
308 K, 101 kPa, x2 = 0.7054	1.36
308 K, 101 kPa, x2 = 0.7911	1.132
308 K, 101 kPa, x2 = 0.8587	0.96
308 K, 101 kPa, x2 = 0.9354	0.828
313.15 K, 100 kPa, x2 = 0.0821	4.06
313.15 K, 100 kPa, x2 = 0.1596	3.56
313.15 K, 100 kPa, x2 = 0.2413	3.09
313.15 K, 100 kPa, x2 = 0.3502	2.52
313.15 K, 100 kPa, x2 = 0.4402	2.1
313.15 K, 100 kPa, x2 = 0.5611	1.65
313.15 K, 100 kPa, x2 = 0.6512	1.37
313.15 K, 100 kPa, x2 = 0.7501	1.14
313.15 K, 100 kPa, x2 = 0.8503	0.9
313.15 K, 100 kPa, x2 = 0.9396	0.78
323.15 K, 100 kPa, x2 = 0.0821	3.03
323.15 K, 100 kPa, x2 = 0.1596	2.65
323.15 K, 100 kPa, x2 = 0.2413	2.31
323.15 K, 100 kPa, x2 = 0.3502	1.93
323.15 K, 100 kPa, x2 = 0.4402	1.66
323.15 K, 100 kPa, x2 = 0.5611	1.34
323.15 K, 100 kPa, x2 = 0.6512	1.13
323.15 K, 100 kPa, x2 = 0.7501	0.95
323.15 K, 100 kPa, x2 = 0.8503	0.77
323.15 K, 100 kPa, x2 = 0.9396	0.66

C=Cc1ccccc1 + C1CCOC1
viscosity [mPa·s], 101.33 kPa
Details	x1 = 0.1011	x1 = 0.199	x1 = 0.3001	x1 = 0.401	x1 = 0.4963	x1 = 0.6002	x1 = 0.6993	x1 = 0.8017	x1 = 0.8979
298.15 K	0.514	–	0.595	0.632	0.664	0.695	0.721	0.742	0.747
303.15 K	0.49	0.528	0.562	0.599	0.625	0.658	0.677	0.695	0.699
308.15 K	0.463	0.498	0.532	0.564	0.589	0.616	0.637	0.652	0.651

C=Cc1ccccc1 + C1COCCO1
viscosity [mPa·s], 101.33 kPa
Details	x1 = 0.1012	x1 = 0.2139	x1 = 0.2989	x1 = 0.3996	x1 = 0.5054	x1 = 0.6016	x1 = 0.7019	x1 = 0.805	x1 = 0.9021
298.15 K	1.119	1.069	1.043	1.005	0.966	0.929	0.891	0.853	0.819
303.15 K	1.034	0.987	0.959	0.929	0.893	0.873	0.829	0.795	0.766
308.15 K	0.957	0.915	0.889	0.862	0.83	0.802	0.774	0.744	0.716

CCCCCCCl + C1COCCO1
303.15 K, 101.3 kPa
Details	viscosity [mPa·s]
x2 = 0.1087	0.6686
x2 = 0.2953	0.7084
x2 = 0.5004	0.7719
x2 = 0.6974	0.8637
x2 = 0.9013	1.004

CC12CC3CC(C1)CC(C)(C3)C2 + C1C[C@@H]2[C@H]3CC[C@H](C3)[C@@H]2C1
viscosity [mPa·s], 100 kPa
Details	x1 = 0.1021	x1 = 0.2015	x1 = 0.3018	x1 = 0.4005	x1 = 0.4981	x1 = 0.602	x1 = 0.6998	x1 = 0.8051	x1 = 0.8993
293.15 K	3.147	3.237	3.335	3.436	3.513	3.592	3.657	–	3.747
298.15 K	2.841	2.922	3.002	3.084	3.151	3.22	3.273	–	3.342
303.15 K	2.582	2.65	2.717	2.787	2.847	2.904	–	–	3.002
313.15 K	2.158	2.207	2.257	2.307	2.353	–	–	2.451	2.458
323.15 K	1.796	–	–	–	1.955	1.989	2.012	–	2.046

CCCCCCCl + C=C(C)C(=O)OC
303.15 K, 101 kPa
Details	viscosity [mPa·s]
x2 = 0.1343	0.6215
x2 = 0.1947	0.6053
x2 = 0.3625	0.5729
x2 = 0.4962	0.5511
x2 = 0.6029	0.5375
x2 = 0.8144	0.5199
x2 = 0.8988	0.5152

CC(=O)c1ccc(Cl)cc1 + C=CC#N
308.15 K, 101 kPa
Details	viscosity [mPa·s]
x1 = 0.0547	0.3753
x1 = 0.1146	0.4278
x1 = 0.1793	0.4934
x1 = 0.2555	0.5751
x1 = 0.3377	0.6821
x1 = 0.4269	0.819
x1 = 0.5441	1.026
x1 = 0.6719	1.303
x1 = 0.8213	1.697

BrC(Br)Br + C=Cc1ccccc1
viscosity [mPa·s], 101.33 kPa
Details	x2 = 0.1005	x2 = 0.2006	x2 = 0.2981	x2 = 0.3985	x2 = 0.506	x2 = 0.6032	x2 = 0.7008	x2 = 0.7712	x2 = 0.8948
298.15 K	1.834	1.697	1.562	1.426	1.284	1.163	1.054	0.9849	0.8704
303.15 K	1.714	1.586	1.462	1.332	1.198	1.084	0.9817	0.9179	0.8129
308.15 K	1.603	1.481	1.361	1.24	1.117	1.01	0.9176	0.8595	0.762

CCCCCCCCO + CC1COC(=O)O1
298.15 K, 101 kPa
Details	viscosity [mPa·s]
x2 = 0.0305	5.992
x2 = 0.0991	5.607
x2 = 0.1708	5.253
x2 = 0.2441	4.915
x2 = 0.3107	4.627
x2 = 0.4055	4.245
x2 = 0.4882	3.938
x2 = 0.5632	3.679
x2 = 0.6277	3.469
x2 = 0.7091	3.222
x2 = 0.7824	3.015
x2 = 0.8415	2.857
x2 = 0.9046	2.698
x2 = 0.971	2.54

CC(=O)c1ccc(Cl)cc1 + CC#N
308.15 K, 101 kPa
Details	viscosity [mPa·s]
x1 = 0.0513	0.3576
x1 = 0.092	0.4065
x1 = 0.1488	0.479
x1 = 0.2128	0.5704
x1 = 0.2863	0.6742
x1 = 0.3792	0.8301
x1 = 0.4876	1.039
x1 = 0.6196	1.31
x1 = 0.7847	1.716
x1 = 0.865	1.96
x1 = 0.9536	2.224

CCCCCCCCO + CC#N
viscosity [mPa·s], 101 kPa
Details	298.15 K	303.15 K	308.15 K
x2 = 0.1277	5.028	4.029	3.493
x2 = 0.2608	3.533	3.09	2.688
x2 = 0.3381	2.848	2.53	2.203
x2 = 0.4447	2.086	1.862	1.638
x2 = 0.5793	1.427	1.282	1.151
x2 = 0.68	1.028	0.927	0.84
x2 = 0.7638	0.77	0.701	0.647
x2 = 0.8283	0.695	0.562	0.523
x2 = 0.8825	0.502	0.472	0.446
x2 = 0.9273	0.435	0.414	0.391
x2 = 0.967	0.39	0.364	0.346

C=Cc1ccccc1 + CC(=O)N(C)C
viscosity [mPa·s], 101.33 kPa
Details	x1 = 0.109	x1 = 0.1994	x1 = 0.2958	x1 = 0.4002	x1 = 0.5004	x1 = 0.6012	x1 = 0.7027	x1 = 0.8005	x1 = 0.9015
298.15 K	0.938	0.936	0.937	0.929	0.921	0.903	0.881	0.851	0.808
303.15 K	0.874	0.873	0.872	0.863	0.857	0.841	0.821	0.795	0.753
308.15 K	0.817	0.818	0.815	0.807	0.8	0.785	0.766	0.742	0.7

CC(C)(C)N + CC(=O)OCCC(C)C
303.15 K, 101 kPa
Details	viscosity [mPa·s]
x1 = 0.1524	0.6892
x1 = 0.239	0.6687
x1 = 0.3353	0.6526
x1 = 0.4584	0.6341
x1 = 0.5807	0.5993
x1 = 0.6423	0.5804
x1 = 0.7298	0.5464
x1 = 0.8649	0.4955

BrC(Br)Br + CC(C)=O
298.15 K, 101 kPa
Details	viscosity [mPa·s]
x1 = 0.0969	0.407
x1 = 0.2014	0.529
x1 = 0.332	0.696
x1 = 0.428	0.847
x1 = 0.4952	0.954
x1 = 0.5974	1.131
x1 = 0.6766	1.268
x1 = 0.7997	1.503
x1 = 0.9166	1.73
